Results published in patent US8084479B2, “Thiazole compounds and methods of use” (Amgen Inc., priority 2006, dated 2011).

Each compound was assayed against PKBα (Homo sapiens, UniProt P31749) (assay: PKB kinase assay (P33-labeled ATP, peptide substrate, filter plate)). Settings: PKBα enzyme (full length or kinase domain with pleckstrin domain deleted).
PKBα, sequence (P31749 118-480 limits assumed): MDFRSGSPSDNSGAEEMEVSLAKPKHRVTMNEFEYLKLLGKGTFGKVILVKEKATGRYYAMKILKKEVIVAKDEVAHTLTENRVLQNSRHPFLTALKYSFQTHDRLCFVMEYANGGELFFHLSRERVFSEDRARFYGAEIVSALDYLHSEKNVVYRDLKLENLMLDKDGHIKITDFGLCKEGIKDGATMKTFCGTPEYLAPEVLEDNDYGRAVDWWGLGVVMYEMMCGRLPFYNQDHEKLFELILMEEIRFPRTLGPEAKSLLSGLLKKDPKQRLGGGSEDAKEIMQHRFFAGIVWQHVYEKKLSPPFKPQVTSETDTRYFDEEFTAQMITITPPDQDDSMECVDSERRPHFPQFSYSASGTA
Format: biochemical
Text: The kinase assay for evaluating PKB activity comprises active PKB enzymes, a PKB specific substrate, and P^33-labeled ATP. […] The phosphorylated substrate was captured by a phosphocellulose membrane filter plate (MLLIPORE) and measured by a Wallac Microbeta liquid scintillation counter (Perkin Elmer).
`CC#Cc1nc(NC[C@@H](N)Cc2ccc(C(F)(F)F)cc2)sc1-c1ccc2cnccc2c1` [Example 143, N—((S)-2-amino-3-(4-(trifluoromethyl)phenyl)propyl)-5-(isoquinolin-6-yl)-4-(prop-1-ynyl)thiazol-2-amine] was tested, and the IC50 was less than 50 nM. `COCc1nc(NC[C@@H](N)Cc2ccc(C(F)(F)F)cc2)sc1-c1ccc2[nH]nc(C)c2c1` [Example 15, N—((S)-2-amino-3-(4-(trifluoromethyl)phenyl)propyl)-4-(methoxymethyl)-5-(3-methyl-1H-indazol-5-yl)thiazol-2-amine] gave an IC50 of 50 to 1000 nM. `N[C@@H](Cc1cccc(C(F)(F)F)c1)CN(Cc1ccccc1)c1ncc(-c2nc3ccncc3s2)s1` [Example 29, N—((S)-2-amino-3-(3-(trifluoromethyl)phenyl)propyl)-N-benzyl-5-(thiazolo[5,4-c]pyridin-2-yl)thiazol-2-amine] gave an IC50 of 1000 to 10000 nM. In the case of `N[C@H](CNc1nc(-c2cccnc2)c(-c2ccc3cnccc3c2)s1)Cc1ccc(C(F)(F)F)cc1` [Example 104, N—((S)-2-Amino-3-(4-(trifluoromethyl)phenyl)propyl)-5-(isoquinolin-6-yl)-4-(pyridin-3-yl)thiazol-2-amine], the IC50 is reported as 50 to 1000 nM. For `CCC[C@@H](c1ccc(C(F)(F)F)cc1)[C@H](N)CNc1ncc(-c2ccc3cnccc3c2)s1` [Example 157, N-((2S,3S)-2-amino-3-(4-(trifluoromethyl)phenyl)hexyl)-5-(isoquinolin-6-yl)thiazol-2-amine], the IC50 was less than 50 nM. `N[C@H](CNc1ncc(-c2ccc3c(c2)CNC3=O)s1)Cc1ccc(Cl)s1` [Example 239, 3,5-(2-((S)-2-amino-3-(5-chlorothiophen-2-yl)propylamino)thiazol-5-yl)isoindolin-1-one] gave an IC50 of 1000 to 10000 nM. With `N[C@H](CNc1ncc(-c2cc3oc(=O)[nH]c3cc2F)s1)Cc1ccc(C(F)(F)F)nc1` [Example 219, 6-(2-((S)-2-amino-3-(6-(trifluoromethyl)pyridin-3-yl)propylamino)thiazol-5-yl)-5-fluorobenzo[d]oxazol-2(3H)-one] the IC50 was 50 to 1000 nM. Compound `N[C@@H](CNc1ncc(-c2ccc3c(c2)CC(=O)N3)s1)Cc1ccc(C(F)(F)F)cc1` [Example 137, 5-(2-((R)-2-Amino-3-(4-(trifluoromethyl)phenyl)propylamino)thiazol-5-1)indolin-2-one] has an IC50 of 50 to 1000 nM. In the case of `CCc1nc(NC[C@@H](N)Cc2ccc(C(F)(F)F)cc2)sc1-c1nc2ccncc2s1` [Example 23, N—((S)-2-amino-3-(4-(trifluoromethyl)phenyl)propyl)-4-ethyl-5-(thiazolo[5,4-c]pyridin-2-yl)thiazol-2-amine], the IC50 is reported as 50 to 1000 nM. For `CCOCc1nc(NC[C@@H](N)Cc2ccc(Cl)cc2)sc1-c1nc2ccncc2s1` [Example 77, N—((S)-2-amino-3-(4-chlorophenyl)propyl)-4-(ethoxymethyl)-5-(thiazolo[5,4-c]pyridin-2-yl)thiazol-2-amine], the IC50 was 50 to 1000 nM. For `N[C@H](CNc1ncc(-c2ccc3cnccc3c2)s1)[C@@H](CO)c1ccc(C(F)(F)F)cc1` [Example 159, (2S,3S)-3-amino-4-(5-(isoquinolin-6-yl)thiazol-2-ylamino)-2-(4-(trifluoromethyl)phenyl)butan-1-ol], the IC50 was less than 50 nM. With `N[C@H](CNc1ncc(-c2cc3c(cc2F)NC(=O)C3)s1)Cc1ccc(C(F)(F)F)nc1` [Example 215, 5-(2-((S)-2-amino-3-(6-(trifluoromethyl)pyridin-3-yl)propylamino)thiazol-5-yl)-6-fluoroindolin-2-one] the IC50 was 50 to 1000 nM. Work on `N[C@H](CNc1nc(CCO)c(-c2ccc3cnccc3c2)s1)Cc1ccc(C(F)(F)F)cc1` [Example 255, 2-(2-((S)-2-amino-3-(4-(trifluoromethyl)phenyl)propylamino)-5-(isoquinolin-6-yl)thiazol-4-yl)ethanol] yielded an IC50 of 50 to 1000 nM. Work on `N[C@H](CNc1ncc(-c2ccc3c(c2)CC(=O)N3)s1)[C@@H](CO)c1ccc(C(F)(F)F)cc1` [Example 158, 5-(2-((2S,3S)-2-amino-4-hydroxy-3-(4-(trifluoromethyl)phenyl)butylamino)thiazol-5-yl)indolin-2-one] yielded an IC50 of less than 50 nM.
